Measurements as given in patent US6706663B2, “Herbicidal 3-heterocyclic substituted benzisothiazole and benzisoxazole compounds” (Wyeth, priority 2000, dated 2004).

Legend:
[1] = tested on: AMBEL (Ambrosia artemisifolia); assay: Postemergence herbicidal evaluation; assay type: in vivo, L.
Outline: (§1)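 Seedlings grown about two weeks in flats, sprayed, then kept under standard greenhouse care. Rated visually 4–5 weeks after treatment on a 0–9 scale (stand, vigour, malformation, size, chlorosis, overall appearance) relative to untreated control; repeat tests averaged.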

[2] = tested on: CASOB (Cassia obtusifolia); assay: Postemergence herbicidal evaluation; assay type: in vivo, L.
Outline: as §1

[3] = tested on: CHEAL (Chenopodium album); assay: Postemergence herbicidal evaluation; assay type: in vivo, L.
Outline: as §1

[4] = tested on: SAGPY (Sagittaria pygmaea); assay: Flooded paddy, preemergence weed control; assay type: in vivo, L.; conditions: rated 3-4 weeks after treatment, 0-9 rating scale
Outline: (§2)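 Scoring used a 0-9 visual scale relative to control. Before that, seeds or propagules were planted shallowly in silt loam and flooded to 1.5–3 cm, a depth maintained throughout, with greenhouse care during the test.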

[5] = tested on: ABUTH (Abutilon theophrasti); assay: Postemergence herbicidal evaluation; assay type: in vivo, Medic.
Outline: as §1

GALAP (Galium aparine) [6] = assay: Postemergence herbicidal evaluation; assay type: in vivo
Outline: as §1

[7] = tested on: TRZAWR (Wheat, Winter, cv Riband); assay: Postemergence herbicidal evaluation; assay type: in vivo, Triticum aestivum
Outline: as §1

[8] = tested on: MOOVA (Monochoria vaginalis); assay: Flooded paddy, preemergence weed control; assay type: in vivo, Presl.; conditions: rated 3-4 weeks after treatment, 0-9 rating scale
Outline: as §2

[9] = tested on: IPOHE (Ipomoea hederacea); assay: Postemergence herbicidal evaluation; assay type: in vivo, (L.) Jacq.
Outline: as §1

CYPIR (Cyperus iria) = assay: Flooded paddy, preemergence weed control; assay type: in vivo; conditions: rated 3-4 weeks after treatment, 0-9 rating scale
Outline: as §2

[10] = tested on: CYPSE (Cyperus serotinus); assay: Flooded paddy, preemergence weed control; assay type: in vivo, Rottb.; conditions: rated 3-4 weeks after treatment, 0-9 rating scale
Outline: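 Herbicidal effect was scored visually on a 0–9 scale against an untreated control 3–4 weeks after treatment. Compounds were applied preemergence as 50/50 v/v aqueous/acetone mixtures into flood water (1.5–3 cm deep over silt loam), at roughly 0.0080 to 0.1250 kg/ha active ingredient.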

[11] = tested on: AMBEL (Ambrosia artemisifolia); assay: Preemergence herbicidal evaluation; assay type: in vivo, L.; conditions: preemergence, rated 4-5 weeks after treatment
Outline: (§3)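 Applied before emergence as an aqueous acetone spray over seeded soil. Read-out: 0–9 visual rating covering plant stand, vigor, size, chlorosis, malformation and overall appearance compared with control, taken 4–5 weeks after spraying.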

[12] = tested on: CASOB (Cassia obtusifolia); assay: Preemergence herbicidal evaluation; assay type: in vivo, L.; conditions: preemergence, rated 4-5 weeks after treatment
Outline: as §3

[13] = tested on: CHEAL (Chenopodium album); assay: Preemergence herbicidal evaluation; assay type: in vivo, L.; conditions: preemergence, rated 4-5 weeks after treatment
Outline: as §3

GALAP (Galium aparine) [14] = assay: Preemergence herbicidal evaluation; assay type: in vivo; conditions: preemergence, rated 4-5 weeks after treatment
Outline: as §3

ORYSAT (Rice, Tebonnet) [15] = assay: Preemergence herbicidal evaluation; assay type: in vivo, Oryza sativa, (L.) Tebonnet; conditions: preemergence, rated 4-5 weeks after treatment
ORYSAT (Rice, Tebonnet) [16] = assay: Postemergence herbicidal evaluation; assay type: in vivo, Oryza sativa, (L.) Tebonnet
Outline: as §1

[17] = tested on: ECHCG (Echinochloa crus-galli); assay: Preemergence herbicidal evaluation; assay type: in vivo, (L.) Beau; conditions: preemergence, rated 4-5 weeks after treatment
Outline: as §3

SETVI (Setaria viridis) [18] = assay: Preemergence herbicidal evaluation; assay type: in vivo, (L.) Beau; conditions: preemergence, rated 4-5 weeks after treatment
Outline: as §3

SETVI (Setaria viridis) [19] = assay: Postemergence herbicidal evaluation; assay type: in vivo, (L.) Beau
Outline: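 Seedlings grown about two weeks were sprayed with compound in 50/50 acetone/water containing 0.5% TWEEN 20, at about 0.0040 to 1.000 kg/ha via nozzle at 40 psi. Plants were kept under greenhouse conditions and visually rated on a 0-9 scale versus control four to five weeks after treatment; replicate tests averaged.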

Structure (SMILES): CN(C(=O)c1nsc2ccc(-n3c(=O)cc(C(F)(F)F)n(C)c3=O)cc12)c1ccc(Cl)cc1 [Compound 18, 1,2-benzisothiazole-3-carboxanilide, 4′-chloro-5-[3,6-dihydro-3-methyl-2,6-dioxo-4-(trifluoromethyl)-1(2H)-pyrimidinyl]-N-methyl-]
- Postemergence herbicidal rating, AMBEL ([1]; rate 0.0320 kg/ha): 2.0
- Postemergence herbicidal rating, AMBEL ([1]; rate 0.0620 kg/ha): 9.0
- Postemergence herbicidal rating, AMBEL ([1]; rate 0.1250 kg/ha): 9.0
- Postemergence herbicidal rating, AMBEL ([1]; rate 0.2500 kg/ha): 9.0
- Postemergence herbicidal rating, CASOB ([2]; rate 0.0320 kg/ha): 0.0
- Postemergence herbicidal rating, CASOB ([2]; rate 0.0620 kg/ha): 1.0
- Postemergence herbicidal rating, CASOB ([2]; rate 0.1250 kg/ha): 2.0
- Postemergence herbicidal rating, CASOB ([2]; rate 0.2500 kg/ha): 6.0
- Postemergence herbicidal rating, CHEAL ([3]; rate 0.0320 kg/ha): 7.0
- Postemergence herbicidal rating, CHEAL ([3]; rate 0.0620 kg/ha): 7.0
- Postemergence herbicidal rating, CHEAL ([3]; rate 0.1250 kg/ha): 7.0
- Postemergence herbicidal rating, CHEAL ([3]; rate 0.2500 kg/ha): 9.0
- herbicidal rating, SAGPY ([4]; rate 0.0080 kg/ha): 0.0
- herbicidal rating, SAGPY ([4]; rate 0.0320 kg/ha): 1.5
- herbicidal rating, SAGPY ([4]; rate 0.1250 kg/ha): 5.0
- Postemergence herbicidal rating, ABUTH ([5]; rate 0.0320 kg/ha): 9.0
- Postemergence herbicidal rating, ABUTH ([5]; rate 0.0620 kg/ha): 9.0
- Postemergence herbicidal rating, ABUTH ([5]; rate 0.1250 kg/ha): 9.0
- Postemergence herbicidal rating, ABUTH ([5]; rate 0.2500 kg/ha): 9.0
- Postemergence herbicidal rating, GALAP (GALAP (Galium aparine) [6]; rate 0.0320 kg/ha): 2.0
- Postemergence herbicidal rating, GALAP (GALAP (Galium aparine) [6]; rate 0.0620 kg/ha): 4.0
- Postemergence herbicidal rating, GALAP (GALAP (Galium aparine) [6]; rate 0.1250 kg/ha): 6.0
- Postemergence herbicidal rating, GALAP (GALAP (Galium aparine) [6]; rate 0.2500 kg/ha): 9.0
- Postemergence herbicidal rating, TRZAWR ([7]; rate 0.0320 kg/ha): 3.0
- Postemergence herbicidal rating, TRZAWR ([7]; rate 0.0620 kg/ha): 4.0
- Postemergence herbicidal rating, TRZAWR ([7]; rate 0.1250 kg/ha): 5.0
- Postemergence herbicidal rating, TRZAWR ([7]; rate 0.2500 kg/ha): 6.0
- herbicidal rating, MOOVA ([8]; rate 0.0080 kg/ha): 0.0
- herbicidal rating, MOOVA ([8]; rate 0.0320 kg/ha): 9.0
- herbicidal rating, MOOVA ([8]; rate 0.1250 kg/ha): 9.0
- Postemergence herbicidal rating, IPOHE ([9]; rate 0.0320 kg/ha): 9.0
- Postemergence herbicidal rating, IPOHE ([9]; rate 0.0620 kg/ha): 9.0
- Postemergence herbicidal rating, IPOHE ([9]; rate 0.1250 kg/ha): 9.0
- Postemergence herbicidal rating, IPOHE ([9]; rate 0.2500 kg/ha): 9.0
- herbicidal rating, CYPIR (CYPIR (Cyperus iria); rate 0.0080 kg/ha): 0.0
- herbicidal rating, CYPIR (CYPIR (Cyperus iria); rate 0.0320 kg/ha): 6.5
- herbicidal rating, CYPIR (CYPIR (Cyperus iria); rate 0.1250 kg/ha): 7.5
- herbicidal rating, CYPSE ([10]; rate 0.0320 kg/ha): 4.0
- herbicidal rating, CYPSE ([10]; rate 0.1250 kg/ha): 4.0
- AMBEL preemergence herbicidal rating ([11]; Rate 0.0620 kg/ha): 7.0
- AMBEL preemergence herbicidal rating ([11]; Rate 0.1250 kg/ha): 9.0
- AMBEL preemergence herbicidal rating ([11]; Rate 0.2500 kg/ha): 9.0
- CASOB preemergence herbicidal rating ([12]; Rate 0.0620 kg/ha): 0.0
- CASOB preemergence herbicidal rating ([12]; Rate 0.1250 kg/ha): 1.0
- CASOB preemergence herbicidal rating ([12]; Rate 0.2500 kg/ha): 1.0
- CHEAL preemergence herbicidal rating ([13]; Rate 0.0620 kg/ha): 9.0
- CHEAL preemergence herbicidal rating ([13]; Rate 0.1250 kg/ha): 9.0
- CHEAL preemergence herbicidal rating ([13]; Rate 0.2500 kg/ha): 9.0
- GALAP preemergence herbicidal rating (GALAP (Galium aparine) [14]; Rate 0.0620 kg/ha): 0.0
- GALAP preemergence herbicidal rating (GALAP (Galium aparine) [14]; Rate 0.1250 kg/ha): 0.0
- GALAP preemergence herbicidal rating (GALAP (Galium aparine) [14]; Rate 0.2500 kg/ha): 9.0
- ORYSAT preemergence herbicidal rating (ORYSAT (Rice, Tebonnet) [15]; Rate 0.0620 kg/ha): 0.0
- ORYSAT preemergence herbicidal rating (ORYSAT (Rice, Tebonnet) [15]; Rate 0.1250 kg/ha): 5.0
- ORYSAT preemergence herbicidal rating (ORYSAT (Rice, Tebonnet) [15]; Rate 0.2500 kg/ha): 8.0
- Postemergence herbicidal rating, ORYSAT (ORYSAT (Rice, Tebonnet) [16]; rate 0.0320 kg/ha): 2.0
- Postemergence herbicidal rating, ORYSAT (ORYSAT (Rice, Tebonnet) [16]; rate 0.0620 kg/ha): 3.0
- Postemergence herbicidal rating, ORYSAT (ORYSAT (Rice, Tebonnet) [16]; rate 0.1250 kg/ha): 5.0
- Postemergence herbicidal rating, ORYSAT (ORYSAT (Rice, Tebonnet) [16]; rate 0.2500 kg/ha): 5.5
- ECHCG preemergence herbicidal rating ([17]; Rate 0.0620 kg/ha): 0.0
- ECHCG preemergence herbicidal rating ([17]; Rate 0.1250 kg/ha): 2.0
- ECHCG preemergence herbicidal rating ([17]; Rate 0.2500 kg/ha): 9.0
- SETVI preemergence herbicidal rating (SETVI (Setaria viridis) [18]; Rate 0.0620 kg/ha): 8.0
- SETVI preemergence herbicidal rating (SETVI (Setaria viridis) [18]; Rate 0.1250 kg/ha): 9.0
- SETVI preemergence herbicidal rating (SETVI (Setaria viridis) [18]; Rate 0.2500 kg/ha): 9.0
- Postemergence herbicidal rating, SETVI (SETVI (Setaria viridis) [19]; rate 0.0320 kg/ha): 0.0
- Postemergence herbicidal rating, SETVI (SETVI (Setaria viridis) [19]; rate 0.0620 kg/ha): 0.0
- Postemergence herbicidal rating, SETVI (SETVI (Setaria viridis) [19]; rate 0.1250 kg/ha): 5.0
- Postemergence herbicidal rating, SETVI (SETVI (Setaria viridis) [19]; rate 0.2500 kg/ha): 9.0
